Experiments:
CSF1R = CSF1R (Homo sapiens, UniProt P07333); assay: SelectScreen Kinase Profiling; assay type: biochemical; conditions: read-out: inhibition of CSF1R
Yes1 = Yes1 (Homo sapiens, UniProt P07947); assay: SelectScreen Kinase Profiling; assay type: biochemical; conditions: read-out: inhibition of Yes1
Blk = Blk (Homo sapiens, UniProt P51451); assay: SelectScreen Kinase Profiling; assay type: biochemical
MUSK = molecular target: T1, MUSK (Homo sapiens, UniProt O15146); assay: SelectScreen Kinase Profiling; assay type: biochemical
T1 sequence (O15146 24-869): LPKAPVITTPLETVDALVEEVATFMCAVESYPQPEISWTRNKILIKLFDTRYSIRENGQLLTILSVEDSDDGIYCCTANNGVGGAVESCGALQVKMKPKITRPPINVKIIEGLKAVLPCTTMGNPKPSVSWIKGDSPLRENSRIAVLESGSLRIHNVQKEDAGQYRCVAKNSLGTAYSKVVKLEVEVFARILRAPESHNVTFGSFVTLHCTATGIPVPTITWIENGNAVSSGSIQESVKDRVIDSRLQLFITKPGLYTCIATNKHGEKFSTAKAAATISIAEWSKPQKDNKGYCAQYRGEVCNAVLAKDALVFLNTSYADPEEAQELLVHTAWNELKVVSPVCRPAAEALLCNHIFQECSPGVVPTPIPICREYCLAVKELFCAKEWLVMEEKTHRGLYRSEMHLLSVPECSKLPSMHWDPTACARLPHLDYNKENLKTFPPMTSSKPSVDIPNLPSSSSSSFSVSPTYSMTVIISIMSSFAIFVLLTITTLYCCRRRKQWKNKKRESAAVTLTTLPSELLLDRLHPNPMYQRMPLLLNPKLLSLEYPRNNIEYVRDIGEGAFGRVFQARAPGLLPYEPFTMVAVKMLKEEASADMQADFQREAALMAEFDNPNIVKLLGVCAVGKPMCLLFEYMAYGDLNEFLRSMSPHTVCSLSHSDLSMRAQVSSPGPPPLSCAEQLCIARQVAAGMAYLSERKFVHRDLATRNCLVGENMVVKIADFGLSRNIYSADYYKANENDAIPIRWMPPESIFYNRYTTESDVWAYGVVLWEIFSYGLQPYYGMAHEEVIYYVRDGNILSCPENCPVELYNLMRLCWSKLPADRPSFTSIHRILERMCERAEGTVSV

TrkA = TrkA (Homo sapiens, UniProt P04629); assay: SelectScreen Kinase Profiling; assay type: biochemical
[1] = system: parental Ba/F3 cells that do not express Bcr-Abl; assay: Counterscreen against parental Ba/F3 cells; assay type: cell-based
[2] = system: diverse set of 66 kinases; assay: SelectScreen Kinase Profiling, whole panel; assay type: biochemical; conditions: 50 nM
[3] = molecular target: Bcr-Abl^T315I in Ba/F3 cells (Homo sapiens, UniProt P00519+P11274, T315I); conditions: 500 nM, 3 h, immunoblot
[4] = molecular target: Bcr-Abl^WT in Ba/F3 cells (Homo sapiens, UniProt P00519+P11274); conditions: 500 nM, 3 h, immunoblot

Chain of Yes1 (P07947 whole entry): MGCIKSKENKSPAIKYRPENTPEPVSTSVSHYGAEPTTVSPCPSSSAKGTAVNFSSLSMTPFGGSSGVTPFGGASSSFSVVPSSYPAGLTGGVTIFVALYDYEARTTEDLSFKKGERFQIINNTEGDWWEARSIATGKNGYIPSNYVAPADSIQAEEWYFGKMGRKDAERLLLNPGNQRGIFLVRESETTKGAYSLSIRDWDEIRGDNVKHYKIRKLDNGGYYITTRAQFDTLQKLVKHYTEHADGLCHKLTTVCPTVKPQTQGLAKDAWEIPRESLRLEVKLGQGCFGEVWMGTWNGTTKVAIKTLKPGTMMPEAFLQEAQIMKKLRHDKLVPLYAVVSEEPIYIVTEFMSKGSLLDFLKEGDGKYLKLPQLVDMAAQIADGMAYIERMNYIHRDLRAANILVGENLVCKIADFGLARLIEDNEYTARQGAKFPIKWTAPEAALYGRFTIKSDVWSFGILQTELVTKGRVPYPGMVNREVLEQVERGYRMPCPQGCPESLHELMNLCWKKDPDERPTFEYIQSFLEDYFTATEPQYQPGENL
Chain of CSF1R (P07333 20-972): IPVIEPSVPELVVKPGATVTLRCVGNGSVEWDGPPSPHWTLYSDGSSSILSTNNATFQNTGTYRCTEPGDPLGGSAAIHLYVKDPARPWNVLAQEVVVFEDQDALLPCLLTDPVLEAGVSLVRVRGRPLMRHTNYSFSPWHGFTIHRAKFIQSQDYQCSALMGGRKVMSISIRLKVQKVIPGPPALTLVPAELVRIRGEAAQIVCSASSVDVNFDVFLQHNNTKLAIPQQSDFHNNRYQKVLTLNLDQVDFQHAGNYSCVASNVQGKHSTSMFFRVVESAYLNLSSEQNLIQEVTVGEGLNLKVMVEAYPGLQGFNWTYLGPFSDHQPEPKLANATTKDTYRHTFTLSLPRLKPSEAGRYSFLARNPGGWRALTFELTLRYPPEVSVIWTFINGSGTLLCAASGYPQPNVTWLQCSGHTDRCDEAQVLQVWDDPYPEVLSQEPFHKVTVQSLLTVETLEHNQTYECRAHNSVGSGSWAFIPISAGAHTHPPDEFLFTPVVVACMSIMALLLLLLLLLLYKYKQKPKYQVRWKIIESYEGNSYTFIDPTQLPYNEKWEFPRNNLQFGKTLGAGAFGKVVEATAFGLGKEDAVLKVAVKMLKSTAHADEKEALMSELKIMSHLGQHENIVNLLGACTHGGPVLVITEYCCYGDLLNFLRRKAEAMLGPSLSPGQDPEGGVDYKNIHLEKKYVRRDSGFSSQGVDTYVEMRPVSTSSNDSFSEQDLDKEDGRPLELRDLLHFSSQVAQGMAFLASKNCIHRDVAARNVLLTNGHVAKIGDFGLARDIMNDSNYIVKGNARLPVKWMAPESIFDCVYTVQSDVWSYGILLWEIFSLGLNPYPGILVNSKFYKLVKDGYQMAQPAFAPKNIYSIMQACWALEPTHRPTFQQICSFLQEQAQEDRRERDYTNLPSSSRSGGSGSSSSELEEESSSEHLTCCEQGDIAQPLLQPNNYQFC
Chain of TrkA (P04629 33-796): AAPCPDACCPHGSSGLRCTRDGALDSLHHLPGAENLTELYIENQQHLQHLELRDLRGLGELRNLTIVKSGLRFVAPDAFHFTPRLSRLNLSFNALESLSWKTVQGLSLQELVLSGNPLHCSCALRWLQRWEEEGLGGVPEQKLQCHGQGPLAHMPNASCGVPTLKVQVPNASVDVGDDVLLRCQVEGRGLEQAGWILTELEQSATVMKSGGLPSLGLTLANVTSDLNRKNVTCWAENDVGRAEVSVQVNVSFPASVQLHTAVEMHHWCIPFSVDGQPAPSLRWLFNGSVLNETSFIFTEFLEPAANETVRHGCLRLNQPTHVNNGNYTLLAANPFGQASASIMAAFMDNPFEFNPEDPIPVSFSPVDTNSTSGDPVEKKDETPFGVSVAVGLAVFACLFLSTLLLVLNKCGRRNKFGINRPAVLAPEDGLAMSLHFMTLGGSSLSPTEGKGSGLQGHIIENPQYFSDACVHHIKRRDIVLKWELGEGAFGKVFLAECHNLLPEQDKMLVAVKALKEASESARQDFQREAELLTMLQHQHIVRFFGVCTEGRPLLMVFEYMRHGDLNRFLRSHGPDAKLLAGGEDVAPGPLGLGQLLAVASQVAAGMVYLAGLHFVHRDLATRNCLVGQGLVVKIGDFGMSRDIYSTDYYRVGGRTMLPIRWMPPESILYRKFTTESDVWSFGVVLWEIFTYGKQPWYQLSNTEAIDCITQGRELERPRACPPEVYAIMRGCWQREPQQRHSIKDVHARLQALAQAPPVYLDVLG
Chain of Blk (P51451 whole entry): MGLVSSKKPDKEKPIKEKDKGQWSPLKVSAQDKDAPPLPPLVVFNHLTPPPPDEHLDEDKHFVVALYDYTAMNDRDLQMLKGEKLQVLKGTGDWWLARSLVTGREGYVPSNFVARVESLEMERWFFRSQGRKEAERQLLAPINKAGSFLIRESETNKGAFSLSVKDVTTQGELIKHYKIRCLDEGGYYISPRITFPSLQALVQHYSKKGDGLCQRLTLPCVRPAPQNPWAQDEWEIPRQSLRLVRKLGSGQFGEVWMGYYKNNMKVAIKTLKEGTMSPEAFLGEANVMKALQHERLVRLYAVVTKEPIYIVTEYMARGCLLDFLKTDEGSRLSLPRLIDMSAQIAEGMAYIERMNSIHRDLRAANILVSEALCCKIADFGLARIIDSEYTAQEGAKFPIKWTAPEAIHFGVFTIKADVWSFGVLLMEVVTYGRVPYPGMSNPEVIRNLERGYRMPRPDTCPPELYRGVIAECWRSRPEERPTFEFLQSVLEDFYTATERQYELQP

SMILES	inhibition at 0.05 µM (CSF1R) [%]	inhibition at 0.05 µM (Yes1) [%]	inhibition at 0.05 µM (Blk; read-out: inhibition of Blk) [%]	inhibition at 0.05 µM (MUSK; read-out: inhibition of MUSK) [%]	inhibition at 0.05 µM (TrkA; read-out: inhibition of TrkA) [%]	window between IC50 values against parental Ba/F3 cells and those expressing Bcr-Abl [1]	inhibition of proliferation of parental Ba/F3 cells ([1]; at concentrations below 1 μM)	inhibition of Blk (Blk; 50 nM)	inhibition of MUSK (MUSK; 50 nM)	inhibition of TrkA (TrkA; 50 nM)	number of kinases potently inhibited (>80% inhibition) [2]	phosphorylation of Abl (Tyr412) and STAT5 (Tyr694) [3]	phosphorylation of Abl (Tyr412) and STAT5 (Tyr694) [4]
Cc1ccc(C(=O)Nc2ccc(CN3CCN(C)CC3)c(C(F)(F)F)c2)cc1C#Cc1cnc2cccnn12 [Ponatinib, reference compound]	> 80	> 80	> 80	> 80	> 80								
CC(C)n1nc(C#Cc2cccc(NC(=O)c3cccc(C(F)(F)F)c3)c2)c2c(N)ncnc21 [Compound 15, N-(3-((4-Amino-1-isopropyl-1H-pyrazolo[3,4-d]pyrimidin-3-yl)-ethynyl)phenyl)-3-(trifluoromethyl)benzamide]	40 to 80	40 to 80				over 100 fold	do not inhibit	not significantly affected	not significantly affected	not significantly affected	9	abolished	abolished
CC(C)n1nc(C#Cc2cccc(O)c2)c2c(N)ncnc21 [Compound 3, 3-((4-Amino-1-isopropyl-1H-pyrazolo[3,4-d]pyrimidin-3-yl)-ethynyl)phenol]												only partially inhibited	only partially inhibited
